One compound from patent US20110280848A1, “COMPOSITION COMPRISING CHICORIC ACID AND/OR DERIVATIVES THEREOF” (NESTEC S.A., priority 2009, published 2011) can be followed below.

The test system of this assay is Nrf2-ARE pathway (AREc32 cells). The assay is described as follows: Antioxidant Responsive Element (ARE) luciferase assay. The conditions noted are these: for F/C (Nrf2-luciferase reporter activity): 24 h. It is filed as cell-based, human. The text has this: The pGL-8×ARE which contains eight copies of the ARE present in rat glutathione-S-transferase A2 (GSTA2) along with the pcDNA3.1 plasmid containing the neomycin selectable marker was stably transfected into human MCF7 cells (Wang et al., Cancer Res. 66, 10983-10994, 2006). ARE (antioxidant-responsive element) is the binding site of the transcription factor Nrf2 which regulates the genes involved in detoxification and endogenous defense against oxidative stress. The plasmid pGL-8×ARE contains a luciferase gene downstream of the eight Nrf2 binding sites that allows monitoring Nrf2 activity. For treatment with chicoric acid and related compounds, the AREc 32 cells were seeded 96-well microtiter plates in DMEM growth medium. After treatment of 24 h with the different preparations, firefly luciferase activity was determined.

For `O=C(/C=C/c1ccc(O)c(O)c1)O[C@@H](C(=O)O)[C@@H](OC(=O)/C=C/c1ccc(O)c(O)c1)C(=O)O` [chicoric acid], the “F/C (Nrf2-luciferase reporter activity)” value came out at 2580 (100 μg/ml); 4364 (200 μg/ml); 8810 (400 μg/ml); 558 (600 μg/ml); 251 (800 μg/ml); 346 (1000 μg/ml). Further, the “Response in Nrf2-luciferase reporter activity” value (saturation inactivation response at higher doses) is given as “positive dose-dependent response”.
